Data set [1] deals with T. cruzi. Kind of data set: T. cruzi in vitro washout assay. As to conditions: for relapses, days post washout: 16-day treatment at 25-fold EC50, two replicates each; for parasites relapsing on day: 8 days of treatment, 50-fold EC50. In kind it is cell-based, Trypanosoma cruzi. An excerpt:
T. cruzi in vitro washout assay
This assay was run as previously reported:
Marco M.; Miles T.J.; Naylor C.; Osuna-Cabello M.; Paterson C.; Read K.D.; Pinto E.G.; Riley
J.; Scullion P.; Shishikura Y.; Simeons F.; Stojanovski L.; Svensen N.; Thomas J.; Wyatt P.G.;
disubstituted piperazines for the treatment of Chagas disease. […]

Data set [2] concerns T. cruzi. As to the kind of experiment: Chronic mouse efficacy model of Chagas disease. In kind it is in vivo, Balb/c mice. Here is the method:
All regulated procedures on living animals were carried out under the authority of a project license issued by the Home Office under the Animals (Scientific Procedures) Act 1986, as amended in 2012 (and in compliance with EU Directive EU/2010/63). Infected animals had access to food and water ad libitum and were housed under a 12-hour light/dark photoperiod.
Animals used in these experiments were female NMRI and Balb/c mice (Harlan, UK). […]
In vivo Mouse Efficacy Studies.
The T. cruzi chronic efficacy study was run in Balb/c mice as previously described:
M.D. Lewis, A. Fortes Francisco, M.C. Taylor, J.M. Kelly, A new experimental model for assessing drug efficacy against Trypanosoma cruzi infection based on highly sensitive in vivo imaging, J. Biomol. Screen 20 (1) (2015) 36–43

A further data set has as its target T. cruzi proteasome (Trypanosoma cruzi, UniProt V5BU39+V5C017). Kind of data set: T. cruzi proteasome assay (chymotrypsin-like activity, Suc-LLVY-Rho-110-DPro). As to conditions: for Tc Prot Hill Slope / Tc Prot Max Response (%): individual replicate; for Emax: read-out: Tc Prot Max Response (%), individual replicate.
The subject of another data set is P-gp (MDR1). Kind of data set: in vitro. Particulars: dog, MDCK-MDR1.
Data set [3] can be described thus: Kinetic solubility by chemiluminescent nitrogen detection (CLND). In kind it is physicochemical.
The next data set can be described thus: Brain tissue binding. As to conditions: read-out: brain tissue free fraction. In kind it is in vitro ADME.
A further data set has as its target Human 20S proteasome (Homo sapiens, UniProt P28074+P49721). As to the kind of experiment: human proteasome assay (chymotrypsin-like activity, Suc-LLVY-Rho-110-DPro).
In data set [4] the test system is intracellular T. cruzi X10/7 A1 amastigotes.
The nature of data set [5]: Mouse microsomal intrinsic clearance. In kind it is in vitro ADME. Particulars: mouse liver microsomes, scaling 52.5 mg microsomal protein/g liver. The procedure: Mouse microsomal intrinsic clearance.
This assay was conducted as previously described:
J.; Reid, I. H.; Hill, A. P.;
(§1) were prepared by adding a volume (5 µL) of the 10 mM solution to a volume (195 µL) of […]
In general terms: Liver microsomes are vesicles of endoplasmic reticulum, rich in cytochrome P450 enzymes.

The nature of the next data set: FaSSIF solubility. As to conditions: fasted state simulated intestinal fluid.
Data set [6] in a line: In vivo blood exposure / pharmacokinetics in mice. On the set-up: species or system mouse.
Description: Blood samples (10 μL) where taken
and 24 hours post dose samples for I.V. leg only) and mixed with two volumes of deionized water (20 μL). After suitable sample preparation, the concentration of test compound in the whole blood from treated mice was determined by UPLC-MS/MS using a Quattro Premier XE (Waters, USA). Pharmacokinetic parameters were derived from the mean blood concentration time curve using PK solutions software v 2.0 (Summit Research Services, USA).
A short description of a further data set: Brain-blood ratio. Particulars: mouse. The format is in vivo.
Data set [7] in a line: Kinetic aqueous solubility (UHPLC, PBS pH 7.4). In kind it is physicochemical. As to conditions: phosphate buffered saline, UHPLC UV/MS. Here is the method: This assay was conducted as previously described: […]
as §1
format). Samples were then drawn through the filter using vacuum. The filtrate from the above […]
formic acid gradient elution. The UHPLC parameters are shown below:
Gradient program: Initial: 98% A, 2% B
Re-equilibration time: 0.6 min
Autosampler temperature: 25°C
Detector wavelength: 254 nm

The next data set is described as follows: ChromLogD. Particulars: pH 7.4; read-out: Chrom LogDpH7.4. In kind it is physicochemical. Here is the method:
Chrom LogD was measured as previously described:
solubility and hydrophobicity. Drug Discov. Today 2010, 15, 648−655. […]

Where [8] appears, read: Tc Prot pIC50, individual replicate.
The mark [9] stands for this setting: mean of at least three independent replicates.

≈ marks a conversion by molar mass, not a printed value. Where “and” joins values, the source holds several entries; their conditions need not be identical. Equal entries are not always repeated.

T. cruzi proteasome, sequence (V5BU39 entry or part of it): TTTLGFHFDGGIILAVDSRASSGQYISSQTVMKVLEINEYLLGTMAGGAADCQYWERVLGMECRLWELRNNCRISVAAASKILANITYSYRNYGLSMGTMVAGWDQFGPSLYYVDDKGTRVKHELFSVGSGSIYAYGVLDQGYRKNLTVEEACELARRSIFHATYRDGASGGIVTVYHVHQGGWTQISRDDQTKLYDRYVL
T. cruzi proteasome, sequence (V5C017 entry or part of it): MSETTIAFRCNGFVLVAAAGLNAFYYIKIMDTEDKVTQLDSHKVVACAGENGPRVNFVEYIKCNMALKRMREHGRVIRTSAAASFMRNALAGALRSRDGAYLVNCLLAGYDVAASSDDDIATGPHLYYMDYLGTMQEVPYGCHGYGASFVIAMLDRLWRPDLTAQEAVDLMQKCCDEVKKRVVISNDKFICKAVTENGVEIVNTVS
Description for FaSSIF solubility: undissolved material using a proprietary filter (Millipore Multiscreen HTS filter, 96-well
was analysed for dissolved drug compound using a truncated UHPLC methodology. A Shimadzu Nexera X2 UHPLC system was used, with a reversed-phase column and a simple
Mobile phase component A HPLC water plus 0.1% formic acid
Mobile phase component B HPLC acetonitrile plus 0.1% formic acid
Column: Hypersil Gold, C18 1.9 µm, 50 x 2.1 mm
A calibration solution was prepared in the following way: The same 10 mM solution used to
was then diluted with 50:50 acetonitrile:water to give a 50 µM solution. Aliquots (0.2, 2.0 and
5.0 µL) of this 50 µM solution were then injected onto the UHPLC system and the areas of the
resultant peaks integrated to produce a calibration line. Aliquots of the test sample filtrate (0.4
and 5.0 µL) were then injected onto the UHPLC system and the resultant peak areas for any
peaks corresponding to the test compound determined and quantified using the calibration line
(the injection volume that gave a peak area closest to the calibrated range was used for
Description for Human 20S proteasome: T. cruzi and human proteasome assays
(§2) The T. cruzi proteasome was partially purified as described in the above reference and Human
(§3) 20S proteasome was purchased from Boston Biochem (now R&D Systems, catalogue number
(§4) a Tecan Fluent to titrate over 11 points in Labcyte Echo-compatible Greiner Bio-One 384 well
(§5) polypropylene microplates. Subsequently, 100 nl of test compound titrations were transferred
(§6) to black Greiner Bio-One low volume 384 well microplates using a Labcyte Echo acoustic
(§7) 50 mM HEPES pH 7.5, 150 mM sodium chloride, 5% Glycerol, 1 mM dithiothreitol, 1 mM
(§8) CHAPS in deionised, filtered water (all chemicals purchased from Sigma Aldrich). Human 20S
(§9) These enzyme solutions were prepared immediately prior to assay initiation and stored at 4 °C
(§10) To monitor the Chymotrypsin-like activity of the T. cruzi and Human 20S proteasome proteins
(§11) a self-quenched, Rhodamine 110-labelled peptide with the sequence Suc-LLVY-Rho-110-
(§12) DPro was used (prepared by Cambridge Research Biochemicals. Suc is succinyl, while DPro
(§13) refers to ᴅ-proline). The peptide was initially prepared from solid as a 10 mM solution in 100%
(§14) DMSO and stored at -20 °C. Prior to use in the assay, an aliquot was thawed at room
(§15) to twofold Km. For use with the Human 20S proteasome, the Suc-LLVY-Rho-110-DPro
(§16) peptide was diluted in assay buffer to a concentration equivalent to twofold Km, which for this
(§17) enzyme was 2 μM. The peptide solutions were protected from light and stored at 4 °C before
(§18) A Multidrop Micro (Thermo Fisher), using a low volume dispense cassette, was used to add
(§19) the assay solutions to the test compounds in the low volume 384-well microplates. Prior to
(§20) addition of proteasome solution, 5 μl of assay buffer was added to one column (containing 100
(§21) nl, 100% DMSO) to act as no enzyme control to mimic full inhibition. Subsequently, 5 μl of
(§22) proteasome solution (either T. cruzi or Human 20S) was added to all wells on the test
(§23) microplate apart from the column containing 5 μl assay buffer. The microplate was then spun
(§24) using a suitable bench top centrifuge for 1 minute at 1000 rpm, before incubation at room
(§25) Following the initial incubation, 5 μl of substrate solution was then added to all wells on the
(§26) test microplate using a Multidrop Micro equipped with a discrete low volume dispense cassette.
(§27) The test microplates were then spun for 10 seconds at 1000 rpm before being rapidly moved to
(§28) a multi-mode microplate reader, capable of monitoring fluorescence intensity. The microplate
(§29) reader used for these studies was a Tecan M1000 Pro, equipped with quad monochromators.
(§30) 530 ± 5 nm. A series of fluorescence intensity measurements were taken every 30 seconds for
(§31) Subsequently, the fluorescence intensity measurements (relative fluorescence units, RFU) were
(§32) fit to a simple linear regression model (y = A + Bx, where y refers to the fluorescence intensity
(§33) and x refers to the time in seconds) to determine the initial rate of reaction. The initial rate for
(§34) every compound concentration tested was then fit a 4-parameter logistic model: y = (A + (B -
(§35) A)) / (1 + (x / C)D), where y refers to the assay response, x refers to the inhibitor concentration,
(§36) A and B are the range values (minimum and maximum, respectively), C is the IC50 value and
(§37) D is the slope. Potency values were then reported as pIC50, which is the negative log of the
(§38) IC50 (on a molar scale). Data analysis was automated and carried out using the ActivityBase
Description for P-gp (MDR1): MDR1-MDCK Permeability assay
Bi-directional transport was assessed in the presence and absence of Pgp inhibitor GF120918
(Elacridar). MDCK-MDR1 cells (Netherlands Cancer Institute) were maintained in culture
(DMEM, Gibco Cat: 61965-026 supplemented with 1% penicillin/streptomycin, 10% FCS)
until required. For experimentation, cells were seeded onto individual transwell ’Thincerts’
(Greiner, Cat 662610) at a density of 35,000 cells/well. Cells were grown at 37 °C, 5% CO2 for
3 days. On day 4, media was replaced with fresh media and incubated for 1 hour. Prior to
experimentation, cells were incubated with Dulbeccos PBS (Gibco, 14287-080) with/without
Pgp inhibitor, 2 µM GF120918, to ensure inactivation of the Pgp transporter. Cells were then
dosed apically and basolaterally (1 µM test compound, 10 µM Lucifer Yellow (1% DMSO)
with/without 2 µM GF120918) for 1 hour. 100 mL of solution from donor and receiver wells
was removed to a 96 well deepwell plate alongside 100 mL of dosing solution. 150 µL of
acetonitrile containing internal standard (e.g., 100 ng/mL Sulfadimethoxine) was then added
to all samples prior to analysis by LC-MS/MS. Amprenavir (positive control) were run […]
a Lucifer Yellow standard curve for fluorescence determination of Lucifer Yellow
concentrations. Papp (apparent permeability) values were calculated for each compound for […]
efflux ratios (ER) determined using the following equations: […]
Description for T. cruzi proteasome: T. cruzi and human proteasome assays
as §2, §3, §4, §5, §6, §7, §8, §9, §10, §11, §12, §13, §14, §15, §16, §17, §18, §19, §20, §21, §22, §23, §24, §25, §26, §27, §28, §29, §30, §31, §32, §33, §34, §35, §36, §37, §38

As for `O=C(Cn1ccnc1[N+](=O)[O-])NCc1ccccc1` [BNZ, benznidazole, reference compound], in the data set with T. cruzi [1], the “relapses, days post washout” value was 31 days and 35 days; the “parasites relapsing on day” value came out at 21 days. Besides, the cure result in the data set with T. cruzi [2] (100 mg/kg for 20 days, u.i.d) is “cured all mice”. The “effect on parasite levels” value in the data set on T. cruzi [2] (dosed at 100 mg/kg) is “reduced parasite levels below detectable limits”.

A word on the IC50: it is the concentration needed to halve the response being measured. High values mean a need for much substance, low ones inhibition by little substance. Usually efflux ratio stands for a quotient of directional permeabilities that is used to spot active efflux. Usually aqueous solubility stands for the concentration that dissolves in the medium under given conditions. What is called EC50 is the concentration that produces a half-maximal response. A lower EC50 goes with a more potent agent. Broadly, the Kp is the ratio of the level in a tissue or fluid to that in plasma or blood. With `O=C(Nc1ccc(F)c(-c2cn3nc(N4CCOCC4)cnc3n2)c1)N1CCCC1` [Compound 4], the concentration for half-maximal inhibition (IC50) against T. cruzi proteasome (setting [8]) is < 1.58 nM and 3.98 nM and 7.94 nM and 1.58 nM and 2.51 nM and 12.6 nM and 5.01 nM and 10 nM. In addition, on T. cruzi proteasome, the “Tc Prot Hill Slope” value was 1.0 and 0.8 and 0.7 and 0.9 and 0.75 and 1.1 and 0.95; the “Tc Prot Max Response (%)” value was 89% and 88% and 85% and 90% and 87%; the Emax is 91%. Also, the efflux ratio at 1 h, 1 µM in the data set on P-gp (MDR1) was found to be 22. Moreover, in data set [3], the aqueous solubility was 59 µM (≈ 24.3 µg/mL). Besides, the fraction unbound in the data set “Brain tissue binding” was 0.043. Further, on Human 20S proteasome (Hs Prot pIC50, individual replicate), the IC50 was 25100 nM and 79400 nM. For the same compound, at Human 20S proteasome (individual replicate), the “Hs Prot Hill Slope” value is 1.7 and 0.9 and 1.3; the “Hs Prot Max Response (%)” value is 35% and 21% and 42% and 24% and 10% and 50% and 28% and 48% and 38% and 29% and 47% and 41% and 54% and 44% and 52% and 49% and 40%; the “Hs Prot pIC50” value is given as less than 4. Moreover, the “Hs Prot pIC50” value on Human 20S proteasome (setting [9]) was less than 4. In data set [4], the EC50 was 100 nM and 126 nM and 63.1 nM; the Emax was 95% and 90% and 93% and 98% and 99% and 96% and 92% and 100%. Also, in data set [5], the “Mouse CLi” value is listed as less than 0.5 mL/min/g. In the data set with T. cruzi [1], the “parasites relapsing on day” value turned out to be 34 days. Also, in “FaSSIF solubility”, the FaSSIF solubility was 32 µM. Also, in [6] (from blood exposure in chronic efficacy model, brain-blood ratio and brain free fraction), the “predicted brain exposure relative to T. cruzi EC99” value is “well below T. cruzi EC99”. Besides, the “time blood exposure above T. cruzi EC99” value in data set [6] (mouse VL efficacy study, 50 mg/kg, also when corrected for plasma protein binding) was more than 8 h. The Kp in the data set “Brain-blood ratio” came out at 0.07. The “effect on parasite levels” value with T. cruzi [2] (5 days at 50 mg/kg bid) is listed as “no visible effect on parasite levels”.

What is called solubility is how much of the substance goes into solution per volume. A higher solubility goes with a readily soluble substance. In the case of `COc1ccc(Cn2nc(C(=O)Nc3ccc(F)c(C(=O)NCCN4CCOCC4)c3)ccc2=O)cc1` [Compound 21, N-[4-Fluoro-3-(2-morpholinoethylcarbamoyl)phenyl]-1-[(4-methoxyphenyl)methyl]-6-oxo-pyridazine-3-carboxamide], the IC50 is 126 nM against T. cruzi proteasome (T. cruzi Prot pIC50, mean of at least three independent replicates) and 126 nM against T. cruzi proteasome (setting [8]). The “Tc Prot Hill Slope” value at T. cruzi proteasome is 1.0 and 0.9. Also, the “Tc Prot Max Response (%)” value on T. cruzi proteasome worked out at 72%. Also, the Emax on T. cruzi proteasome was 80%; at Human 20S proteasome (read-out: Hs Prot Max Response (%), individual replicate) it was 9%; in data set [4] it was 95% and 94% and 98% and 96% and 92%. Besides, in [7], the concentration in solution (solubility at 24 h) was 200 µM (≈ 102 µg/mL). Further, on Human 20S proteasome (individual replicate), the “Hs Prot Max Response (%)” value is 12%. Besides, the “Hs Prot pIC50” value on Human 20S proteasome (individual replicate) and on Human 20S proteasome (setting [9]) was less than 4 in each case. The EC50 is 1580 nM and 1000 nM in data set [4]; more than 50100 nM in the data set on host VERO cells. Further, the “Mouse CLi” value in data set [5] is 3.6 mL/min/g. Besides, the chromatographic logD in “ChromLogD” came out at 3.7.

In the case of `CNC(=O)c1cc(NC(=O)c2ccc(=O)n(Cc3ccc(OC)cc3)n2)ccc1F` [Compound 26, N-(4-Fluoro-3-(methylcarbamoyl)phenyl)-1-(4-methoxybenzyl)-6-oxo-1,6-dihydropyridazine-3-carboxamide], at T. cruzi proteasome (setting [8]), the IC50 is 63.1 nM and 31.6 nM. Further, at T. cruzi proteasome, the “Tc Prot Hill Slope” value was 1.0 and 1.1; the “Tc Prot Max Response (%)” value is 82%; the Emax worked out at 73%. In addition, on Human 20S proteasome (individual replicate), the “Hs Prot Max Response (%)” value is 21% and 3% and 0%; the “Hs Prot pIC50” value is less than 4. For the same compound, the “Hs Prot pIC50” value on Human 20S proteasome (setting [9]) is listed as less than 4. Also, in data set [4], the EC50 was 794 nM and 631 nM and 501 nM and 1000 nM; the Emax is 92% and 94% and 95% and 87% and 86% and 98% and 90%. The “relapses, days post washout” value with T. cruzi [1] is 35 days and 42 days. In the data set with host VERO cells, this compound registered an EC50 of more than 50100 nM and an Emax of 20%. Also, the cure result with T. cruzi [2] (50 mg/kg b.i.d for 20 days) is given as “not curative”.

The values above are taken from PMC10424187, “Structure-Guided Design and Synthesis of a Pyridazinone Series of Trypanosoma cruzi Proteasome Inhibitors” (Journal of Medicinal Chemistry, 2023).
